Data taken from US8999669B2, “Detection and visualization of the cell cycle in living cells” (Ludwig-Maximilians Universitat München, priority 2009, dated 2015).

System: HeLa cells
Test: mitosis assay with HeLa cell-line stably expressing PCNA3p16-GFP (clone 9.6)
Type: cell-based, human
Conditions: 0.1 μg/ml, 13 h time series, 30 min intervals
Protocol: HeLa cell-lines stably expressing PCNA3p16-GFP (clone 9.6; amino acid sequence of SEQ ID NO: 2 fused to GFP) were seeded at 50% confluency in live cell imaging chamber (ibidi μ-Slide 8 well). After incubation over night, normal growth medium (DMEM+10% FCS) was replaced with CO2 adapted live-cell medium (DMEM without phenol red+10% FCS+25 mM Hepes Buffer). Subsequently the imaging slide was placed on an INCell Analyzer 1000 (GE Healthcare) high content microscope equipped with an environmental control chamber, adjusted to 37° C. and 5% CO2. Images were acquired with an 20X/0.45 NA air objective using the appropriate filterset for the fluorescent protein GFP (HQ480—40X/HQ535—50M) and an exposure time of 750 ms. For the live cell imaging 15 fields of view per well were selected and a 13 hour time series started with time intervals of 30 min. After the first time point 0.1 μg/ml Colcemid was added directly to the medium of one well; control cells were left untreated (FIG. 11A). Colcemid is a mitotic inhibitor drug such as Colchicine, which depolymerises microtubules and limits microtubule formation (inactivates spindle fibre formation), thus arresting cells in metaphase.
The acquired data set was analyzed with the automated image evaluation and quantification program INCell workstation. […] The amount of mitotic cells per time point was counted and evaluated.

## CN[C@H]1CCc2cc(OC)c(OC)c(OC)c2-c2ccc(OC)c(=O)cc21 [colcemid, Colcemid]
  mitotic cells in treated cell population: increase of mitotic cells
